Results from patent publication US9993465B2, “2,5-disubstituted-pyridyl nicotinic ligands, and methods of use thereof” (Georgetown University, priority 2011, dated 2018).
Where two headings read alike, the source gives them in different places.

Assays:
[1] = target: native nAChRs of rat forebrain (Rattus norvegicus, UniProt P09483+P12390); format: binding; conditions: Table 1
Procedure: (§1) To determine selectivities of these compounds in binding assays among the three predominant nAChR subtypes, α3β4, α4β2 and α7, the ratios of Ki values (α3β4/α4β2 and α7/α4β2) were determined.
Briefly, cultured cells at >80% confluence were removed from their flasks (80 cm^2) with a disposable cell scraper and placed in 10 mL of 50 mM Tris.HCl buffer (pH 7.4, 4° C.). The cell suspension was centrifuged at 10,000×g for 5 min and the pellet was collected. The cell pellet was then homogenized in 10 mL buffer with a polytron homogenizer and centrifuged at 36,000 g for 10 min at 4° C. The membrane pellet was resuspended in fresh buffer, and aliquots of the membrane preparation were used for binding assays. […] Bound and free ligands were separated by vacuum filtration through Whatman GF/C filters treated with 0.5% polyethylenimine. The filter-retained radioactivity was measured by liquid scintillation counting. Specific binding was defined as the difference between total binding and nonspecific binding. Data from competition binding assays were analyzed using Prism 5 (GraphPad Software, San Diego, Calif.).
We measured the in vitro binding affinities of the ligands for defined receptor subtypes (α2β2, α2β4, α3β2, α3β4, α4β2, α4Γ4, α6β2, α6β4, and α7) expressed in stably transfected cell lines. […] Rat forebrain homogenates were included to allow comparison between the heterologous and native α4β2 and α7 nAChRs.

ferrets = assay: Emesis studies in ferrets; format: in vivo, ferret (Mustela putorius furo)
Procedure: Effects of (S)-15 in causing nausea and emesis were assessed in a ferret model. For comparison, varenicline was also tested. […] In general, all animals remained alert and active with periods of inactivity that mirrored their baseline behavior within the 1 hr observation period.
In one animal, this behavior was accompanied by oral stereotypy (licking), whereas in two animals it was interspersed by episodes of backward walking. On the average, these behaviors manifested around ˜2.20 min. […] Occasionally, when animals tried to ambulate they would immediately cease their movement after each attempt. This would, be followed by a momentary increase in breathing, giving the impression that the animal was in distress.
Studies were undertaken in male ferrets (Mustela putorius furo) weighing 0.9-1.5 kg (Marshall Farms, N.Y.). They were housed in controlled conditions of room temperature (22° C.) and light (12:12 h light-dark cycle) with free access to food and water. Prior to each experiment, food was withheld overnight, whereas water was provided ad libitum.
Emetic testing consisted of placing animals individually in a polycarbonate enclosure. Following a 30 min acclimation period, each animal randomly received a subcutaneus injection of varencline or compound (S)-15 (YL-1-127) in the subscapular region. A 60 min observation and video recording followed the drug administration. […] All drugs were dissolved in sterile saline.
Video analysis of the incidence of emesis, stereotypical behaviors (such as licking, mouth-clawing, backward walking, gagging, and burying of the head in cage) and GI side effects (diarrhea) was done off-line. Stereotypical behaviors are thought to be reflective of a subjective sensation of nausea. The emetic index of a drug was calculated as the percentage of animals displaying emesis (one or more times in 60 min) divided by the total number of animals tested. […]
The Nausea Index for the stereotypical behaviors was derived from the mean±SEM number of nausea behaviors observed among all animals in a given treatment group. Significance was determined at p<0.05.

human α4β2 nAChRs = human α4β2 nAChRs (Homo sapiens (Human), UniProt P17787+P43681); assay: 86Rb+ efflux assay, agonist activity, α4β2; format: cell-based
Procedure: (§2) Their agonist activities were assessed by measuring stimulated ^86Rb^+ efflux from stably transfected cells, either expressing human α4β2 nAChRs or rat α3β4 receptors.
(§3) The cell lines expressing defined rat nAChR subtypes were established previously by stably transfecting HEK 293 cells with rat nAChR subunit genes. The cell line expressing human α4β2 nAChRs, YXα4β2H1, was established recently. These cell lines were maintained in minimum essential medium (MEM) supplemented with 10% fetal bovine serum, 100 units/mL penicillin G, […] and selective antibiotics at 37° C. with 5% CO2 in a humidified incubator. Fetal bovine serum was provided by Gemini Bio-Products (Woodland, Calif.). Tissue culture medium and antibiotics were obtained from Invitrogen Corporation (Carlsbad, Calif.), unless otherwise stated.
Functional properties of compounds at nAChRs expressed in the transfected cells were measured using ^86Rb^+ efflux assays as described previously. In brief, cells expressing human α4β2 or rat α3β4 nAChRs were plated into 24-well plates coated with poly-D-lysine. The plated cells were grown at 37° C. for 18 to 24 hour to reach 85-95% confluence. The cells were then incubated in growth medium (0.5 mL/well) containing ^86Rb^+ (2 μCi/mL) for 4 hour at 37° C. The loading mixture was then aspirated, and the cells were washed four times with 1 mL buffer (15 mM HEPES, 140 mM NaCl, 2 mM KCl, 1 mM MgSO4, 1.8 mM CaCl2, 11 mM Glucose, pH 7.4). One mL of buffer with or without compounds to be tested was then added to each well. After incubation for 2 min, the assay buffer was collected for measurements of ^86Rb^+ released from the cells. Cells were then lysed by adding 1 ml of 100 mM […] to each well, and the lysate was collected for determination of the amount of ^86Rb^+ that was in the cells at the end of the efflux assay. Radioactivity of assay samples and lysates was measured by liquid scintillation counting. Total loading (cpm) was calculated as the sum of the assay sample and the lysate of each well. The amount of ^86Rb^+ efflux was expressed as a percentage of ^86Rb^+ loaded. […] For obtaining EC50 and Emax values, stimulation curves were constructed in which 8 different concentrations of a ligand were included in the assay. […] EC50, Emax and IC50(10′) values were determined by nonlinear least-squares regression analyses (GraphPad, San Diego, Calif.).
The functional properties of the ligands were determined by ^86Rb^+ efflux assays in cells expressing α3β4 and α4β2 nAChR subtypes. The functional activity of each ligand was measured for its agonism, antagonism and desensitization ability. Agonist activity for each of the ligands was tested at eight different concentrations. […]

rat α4β2 nAChR = rat α4β2 nAChR (Rattus norvegicus (Rat), UniProt P09483+P12390); format: binding; conditions: versus Sazetidine-A
Procedure: as §1, §3
Briefly, cultured cells at >80% confluence were removed from their flasks (80 cm^2) with a disposable cell scraper and placed in 10 mL of 50 mM Tris.HCl buffer (pH 7.4, 4° C.). […] The filter-retained radioactivity was measured by liquid scintillation counting. […] Data from competition binding assays were analyzed using Prism 5 (GraphPad Software, San Diego, Calif.).
We measured the in vitro binding affinities of the ligands for defined receptor subtypes (α2β2, α2β4, α3β2, α3β4, α4β2, α4Γ4, α6β2, α6β4, and α7) expressed in stably transfected cell lines. […]

rat α3β4 nAChRs = rat α3β4 nAChRs (Rattus norvegicus (Rat), UniProt P04757+P12392); assay: 86Rb+ efflux assay, agonist activity, α3β4; format: cell-based
Procedure: as §2
as §3, with “Tissue culture medium and antibiotics were obtained from Invitrogen Corporation (Carlsbad, Calif.), unless otherwise stated.” left out
Functional properties of compounds at nAChRs expressed in the transfected cells were measured using ^86Rb^+ efflux assays as described previously. […] Radioactivity of assay samples and lysates was measured by liquid scintillation counting. Total loading (cpm) was calculated as the sum of the assay sample and the lysate of each well. The amount of ^86Rb^+ efflux was expressed as a percentage of ^86Rb^+ loaded. […] EC50, Emax and IC50(10′) values were determined by nonlinear least-squares regression analyses (GraphPad, San Diego, Calif.).
The functional properties of the ligands were determined by ^86Rb^+ efflux assays in cells expressing α3β4 and α4β2 nAChR subtypes. […]

CCCCC#Cc1cnc(C)c(OC[C@H]2CCN2)c1 [(R)-15, (R)-3-(azetidin-2-ylmethoxy)-5-(hex-1-ynyl)-2-methylpyridine]
Ki [1]: 4300 nM

CCCCC#Cc1cnc(C)c(OC[C@H]2CCCN2)c1 [(R)-16, (R)-5-(hex-1-ynyl)-2-methyl-3-(pyrrolidin-2-ylmethoxy) pyridine]
Ki [1]: 110000 nM

CCCCC#Cc1cnc(C)c(OC[C@@H]2CCN2)c1 [(S)-15, (S)-3-(azetidin-2-ylmethoxy)-5-(hex-1-ynyl)-2-methylpyridine]
Ki [1]: 52 nM | emetic episodes or stereotypical behaviors indicative of nausea (ferrets; 1-30 mg/kg s.c., 1 hr observation): did not elicit any emetic episodes or stereotypical behaviors that are indicative of nausea

CCCCC#Cc1cnc(C)c(OC[C@@H]2CCCN2)c1 [(S)-16, (S)-5-(hex-1-ynyl)-2-methyl-3-(pyrrolidin-2-ylmethoxy)pyridine]
Ki [1]: 540 nM | agonist activity at α4β2 nAChRs (human α4β2 nAChRs; result in words): didn't show detectable agonist activity

Cc1ncc(C#CCCCCO)cc1OC[C@@H]1CCN1 [(S)-17, (S)-6-(5-(azetidin-2-ylmethoxy)-6-methylpyridin-3-yl)hex-5-yn-1-ol]
reduction in binding affinity for α4β2 nAChRs (rat α4β2 nAChR): 70 fold | Ki [1]: 11 nM

Cc1ncc(C#CCCCCCl)cc1OC[C@@H]1CCN1 [(S)-21, (S)-3-(azetidin-2-ylmethoxy)-5-(6-chlorohex-1-ynyl)-2-methylpyridine]
Ki [1]: 32 nM | agonist activity at α4β2 nAChRs (human α4β2 nAChRs; result in words): didn't show detectable agonist activity

Cc1ncc(C#CCCCCF)cc1OC[C@@H]1CCN1 [(S)-22, (S)-3-(azetidin-2-ylmethoxy)-5-(6-fluorohex-1-ynyl)-2-methylpyridine]
agonist activity at α4β2 nAChRs (human α4β2 nAChRs; result in words): didn't show detectable agonist activity

Cc1ncc(C#CC2CC2)cc1OC[C@@H]1CCN1 [(S)-27, (S)-3-(azetidin-2-ylmethoxy)-5-(cyclopropylethynyl)-2-methylpyridine]
Ki [1]: 31 nM

CN1CCC[C@H]1c1cccnc1 [(−)-Nicotine, (−)-nicotine, reference compound]
agonist activity at α4β2 nAChRs (human α4β2 nAChRs): full agonist activities | agonist activity at α3β4 nAChRs (rat α3β4 nAChRs): full agonist activities

OCCCCC#Cc1cncc(OC[C@@H]2CCN2)c1 [Sazetidine-A, reference compound]
Ki [1]: 0.17 nM

c1cnc2cc3c(cc2n1)[C@@H]1CNC[C@H]3C1 [Varenicline, varenicline]
Ki [1]: 1.1 nM | emetic episodes (ferrets; 0.5 mg/kg s.c.): no emetic episodes were observed | time at which nausea behaviors manifested, on the average (ferrets; 0.5 mg/kg s.c.): ~2.20 min
